Results taken from ChEMBL document CHEMBL4831542, “Design, Synthesis, and Biological Evaluation of Icaritin Derivatives as Novel Putative DEPTOR Inhibitors for Multiple Myeloma Treatment” (J Med Chem, 2021).
Active and inactive are the calls of the source. The rule behind the calls is not given here.

Assays:
[1] = system: RPMI-8226; assay: cells; details: Homo sapiens, RPMI-8226, 72 h
Description: Antiproliferative activity against human RPMI-8226 cells assessed as inhibition of cell proliferation incubated for 72 hrs by CCK8 assay

[2] = system: RPMI-8226; assay: Antiproliferative activity against human RPMI8226 cells assessed as inhibition of cell proliferation at 125 uM incubated for 72 hrs by CCK8 assay; type: functional
[3] = system: RPMI-8226; assay: Antiproliferative activity against human RPMI8226 cells assessed as inhibition of cell proliferation at 250 uM incubated for 72 hrs by CCK8 assay; type: functional
[4] = system: U2OS; assay: cells; details: Homo sapiens, 72 h
Description: Antiproliferative activity against human U2OS cells assessed as inhibition of cell proliferation incubated for 72 hrs by CCK8 assay

[5] = system: HepG2; assay: cells; details: Homo sapiens, HepG2, 72 h
Description: Antiproliferative activity against human HepG2 cells assessed as inhibition of cell proliferation incubated for 72 hrs by CCK8 assay

[6] = system: RPMI-8226; assay: Induction of apoptosis in human RPMI8226 cells assessed as early apoptotic cells at 4 uM measured after 36 hrs by Annexin V-FITC based flow cytometry (reference value: 7.48%); type: functional
[7] = system: RPMI-8226; assay: Induction of apoptosis in human RPMI8226 cells assessed as early apoptotic cells at 1 uM measured after 36 hrs by Annexin V-FITC based flow cytometry (reference value: 7.48%); type: functional
[8] = system: RPMI-8226; assay: Antitumor activity against human RPMI8226 cells xenografted in BALB/c mouse assessed as tumor growth inhibition at 100 mg/kg, po once a day for 3 weeks relative to control; type: functional; details: RPMI-8226, po, 504 h, read-out: TGI
[9] = system: RPMI-8226; assay: Induction of apoptosis in human RPMI8226 cells assessed as viable cells at 4 uM measured after 36 hrs by Annexin V-FITC based flow cytometry (reference value: 91.68%); type: functional; details: read-out: Activity
[10] = system: RPMI-8226; assay: Induction of apoptosis in human RPMI8226 cells assessed as late apoptotic cells at 4 uM measured after 36 hrs by Annexin V-FITC based flow cytometry (reference value: 0.81%); type: functional
[11] = system: MCF7; assay: cells; details: Homo sapiens, MCF7, 72 h
Description: Antiproliferative activity against human MCF7 cells assessed as inhibition of cell proliferation incubated for 72 hrs by CCK8 assay

[12] = system: U-266; assay: cells; details: Homo sapiens, U-266, 72 h
Description: Antiproliferative activity against human U266 cells assessed as inhibition of cell proliferation incubated for 72 hrs by CCK8 assay

[13] = system: RPMI-8226; assay: Induction of apoptosis in human RPMI8226 cells assessed as viable cells at 2 uM measured after 36 hrs by Annexin V-FITC based flow cytometry (reference value: 91.68%); type: functional; details: read-out: Activity
[14] = system: RPMI-8226; assay: Cell cycle arrest in human RPMI8226 cells assessed as accumulation of cells at G2 phase at 4 uM measured after 36 hrs by flow cytometry (reference value: 27.03%); type: functional
[15] = system: RPMI-8226; assay: Cell cycle arrest in human RPMI8226 cells assessed as accumulation of cells at S phase at 2 uM measured after 36 hrs by flow cytometry (reference value: 50.02%); type: functional
[16] = system: RPMI-8226; assay: Induction of apoptosis in human RPMI8226 cells assessed as necrotic cells at 4 uM measured after 36 hrs by Annexin V-FITC based flow cytometry (reference value: 0.03%); type: functional
[17] = system: RPMI-8226; assay: Induction of apoptosis in human RPMI8226 cells assessed as early apoptotic cells at 2 uM measured after 36 hrs by Annexin V-FITC based flow cytometry (reference value: 7.48%); type: functional
[18] = system: RPMI-8226; assay: Cell cycle arrest in human RPMI8226 cells assessed as accumulation of cells at G1 phase at 4 uM measured after 36 hrs by flow cytometry (reference value: 22.95%); type: functional
[19] = system: RPMI-8226; assay: Antitumor activity against human RPMI8226 cells xenografted in BALB/c mouse assessed as tumor growth inhibition at 200 mg/kg, po once a day for 3 weeks relative to control; type: functional; details: RPMI-8226, po, 504 h, read-out: TGI
[20] = system: RPMI-8226; assay: Cell cycle arrest in human RPMI8226 cells assessed as accumulation of cells at G1 phase at 2 uM measured after 36 hrs by flow cytometry (reference value: 22.95%); type: functional
[21] = system: RPMI-8226; assay: Induction of apoptosis in human RPMI8226 cells assessed as late apoptotic cells at 1 uM measured after 36 hrs by Annexin V-FITC based flow cytometry (reference value: 0.81%); type: functional
[22] = system: NCI-H460; assay: cells; details: Homo sapiens, NCI-H460, 72 h
Description: Antiproliferative activity against human NCI-H460 cells assessed as inhibition of cell proliferation incubated for 72 hrs by CCK8 assay

[23] = system: DLD-1; assay: cells; details: Homo sapiens, DLD-1, 72 h
Description: Antiproliferative activity against human DLD1 cells assessed as inhibition of cell proliferation incubated for 72 hrs by CCK8 assay

[24] = system: SiHa; assay: cells; details: Homo sapiens, 72 h
Description: Antiproliferative activity against human SiHa cells assessed as inhibition of cell proliferation incubated for 72 hrs by CCK8 assay

[25] = system: HL-60; assay: cells; details: Homo sapiens, HL-60, 72 h
Description: Antiproliferative activity against human HL-60 cells assessed as inhibition of cell proliferation incubated for 72 hrs by CCK8 assay

[26] = system: RPMI-8226; assay: Reduction in DEPTOR mRNA expression in human RPMI8226 cells by quantitative PCR analysis relative to control; type: functional, cell-based; details: dose 1-4 µM
[27] = system: RPMI-8226; assay: Cell cycle arrest in human RPMI8226 cells assessed as accumulation of cells at G2 phase at 1 uM measured after 36 hrs by flow cytometry (reference value: 27.03%); type: functional
[28] = system: RPMI-8226; assay: Induction of apoptosis in human RPMI8226 cells assessed as viable cells at 1 uM measured after 36 hrs by Annexin V-FITC based flow cytometry (reference value: 91.68%); type: functional; details: read-out: Activity
[29] = system: RPMI-8226; assay: Reduction in DEPTOR protein expression in human RPMI8226 cells incubated for 24 hrs by Western blot analysis; type: functional, cell-based; details: dose 1-4 µM
[30] = system: U-251; assay: cells; details: Homo sapiens, U-251, 72 h
Description: Antiproliferative activity against human U251 cells assessed as inhibition of cell proliferation incubated for 72 hrs by CCK8 assay

[31] = system: RPMI-8226; assay: Cell cycle arrest in human RPMI8226 cells assessed as accumulation of cells at S phase at 1 uM measured after 36 hrs by flow cytometry (reference value: 50.02%); type: functional
[32] = system: RPMI-8226; assay: Induction of apoptosis in human RPMI8226 cells assessed as necrotic cells at 2 uM measured after 36 hrs by Annexin V-FITC based flow cytometry (reference value: 0.03%); type: functional
[33] = system: RPMI-8226; assay: Cell cycle arrest in human RPMI8226 cells assessed as accumulation of cells at S phase at 4 uM measured after 36 hrs by flow cytometry (reference value: 50.02%); type: functional
[34] = system: RPMI-8226; assay: Cell cycle arrest in human RPMI8226 cells assessed as accumulation of cells at G1 phase at 1 uM measured after 36 hrs by flow cytometry (reference value: 22.95%); type: functional
[35] = system: RPMI-8226; assay: Induction of apoptosis in human RPMI8226 cells assessed as late apoptotic cells at 2 uM measured after 36 hrs by Annexin V-FITC based flow cytometry (reference value: 0.81%); type: functional
[36] = system: RPMI-8226; assay: Induction of apoptosis in human RPMI8226 cells assessed as necrotic cells at 1 uM measured after 36 hrs by Annexin V-FITC based flow cytometry (reference value: 0.03%); type: functional
[37] = system: RPMI-8226; assay: Antitumor activity against human RPMI8226 cells xenografted in BALB/c mouse assessed as reduction in tumor weight at 100 to 200 mg/kg, po once a day for 3 weeks; type: functional, organism-based; details: dose 100-200 mg/kg
[38] = system: MGC-803; assay: cells; details: Homo sapiens, MGC-803, 72 h
Description: Antiproliferative activity against human MGC-803 cells assessed as inhibition of cell proliferation incubated for 72 hrs by CCK8 assay

[39] = Toxicity in BALB/c mouse xenografted with human RPMI8226 cells assessed as change in body weight at 100 to 200 mg/kg, po once a day for 3 weeks; type: organism-based, RPMI-8226; details: in vivo, 504 h, dose 100-200 mg/kg
[40] = system: MOLT-4; assay: cells; details: Homo sapiens, MOLT-4, 72 h
Description: Antiproliferative activity against human MOLT-4 cells assessed as inhibition of cell proliferation incubated for 72 hrs by CCK8 assay

[41] = system: RPMI-8226; assay: Cell cycle arrest in human RPMI8226 cells assessed as accumulation of cells at G2 phase at 2 uM measured after 36 hrs by flow cytometry (reference value: 27.03%); type: functional

O=c1c(O)c(-c2ccc(Cl)c(Cl)c2)oc2c3c(ccc12)OCN(Cc1ccncc1)C3
IC50 [1]: 5.9 µM

CCN(CC)Cc1c(O)ccc2c(=O)c(O)c(-c3cccc(Cl)c3Cl)oc12
IC50 [1]: 60.4 µM

COc1ccc(-c2oc3c(CNCC(=O)O)c(O)ccc3c(=O)c2O)c(OC)c1
IC50 [1]: 66.2 µM

O=c1c(O)c(-c2ccncc2)oc2c3c(ccc12)OCN(Cc1ccc(Cl)c(Cl)c1)C3
IC50 [1]: 27.6 µM

COc1ccc(-c2oc3c(CNC(Cc4ccccc4)C(=O)O)c(O)ccc3c(=O)c2O)c(OC)c1 (stereo not given)
inhibition at 125 µM [2]: 30%

COc1ccc(-c2oc3c(CN4CCCC4)c(O)ccc3c(=O)c2O)c(OC)c1
inhibition at 250 µM [3]: 53%

COc1ccc(-c2oc3c4c(ccc3c(=O)c2O)OCN(C2CCN(C)CC2)C4)c(OC)c1
IC50 [1]: 44.8 µM

O=C(O)[C@@H]1CCCN1Cc1c(O)ccc2c(=O)c(O)c(-c3cccc(Cl)c3Cl)oc12
inhibition at 125 µM [2]: 49%

COc1ccc(-c2oc3c(CNCC4CCOCC4)c(O)ccc3c(=O)c2O)c(OC)c1
inhibition at 125 µM [2]: 16%

COc1ccc(-c2oc3c(CN4CCOCC4)c(O)ccc3c(=O)c2O)c(OC)c1
inhibition at 125 µM [2]: 25%

O=c1c(O)c(-c2ccc(Cl)c(Cl)c2)oc2c(CN3CCOCC3)c(O)ccc12
IC50 [1]: 4.03 µM

O=c1c(O)c(-c2ccc(Cl)c(Cl)c2)oc2c3c(ccc12)OCN(Cc1cccc(F)c1)C3
IC50 [4]: > 10 µM
IC50 [5]: > 10 µM
Activity [6]: 60.59%
Activity [7]: 24.26%
inhibition in vivo at 100 mg/kg [8]: 45.4%
viability at 4 µM [9]: 13.9%
Activity [10]: 25.18%
IC50 [11]: 8.68 µM
IC50 [12]: 1.11 µM
viability at 2 µM [13]: 29.4%
Activity [14]: 15.01%
Activity [15]: 55.5%
Activity [16]: 0.28%
Activity [17]: 53.44%
Activity [18]: 22.38%
inhibition in vivo at 200 mg/kg [19]: 61.1%
Activity [20]: 18.17%
Activity [21]: 9.16%
IC50 [22]: > 10 µM
IC50 [23]: 10 µM
IC50 [24]: > 10 µM
IC50 [25]: 6.6 µM
IC50 [1]: 1.09 µM
Activity [26]: Dose-Dependent Effect
Activity [27]: 25.91%
viability at 1 µM [28]: 65%
Activity [29]: Dose-Dependent Effect
IC50 [30]: > 10 µM
Activity [31]: 51.75%
Activity [32]: 0.54%
Activity [33]: 62.51%
Activity [34]: 22.33%
Activity [35]: 16.6%
Activity [36]: 1.55%
Activity [37]: Active
IC50 [38]: > 10 µM
Activity [39]: Non-Toxic
IC50 [40]: 7.02 µM
Activity [41]: 26.33%

COc1ccc(-c2oc3c(CNCc4ccccc4)c(O)ccc3c(=O)c2O)c(OC)c1
IC50 [1]: 14.9 µM

O=c1c(O)c(-c2cccc(Cl)c2Cl)oc2c(CN3CCCC3)c(O)ccc12
IC50 [1]: 42.8 µM

O=c1c(O)c(-c2cccc(Cl)c2Cl)oc2c(CN3CCOCC3)c(O)ccc12
IC50 [1]: 29.8 µM

CN1CCC(N2COc3ccc4c(=O)c(O)c(-c5cccc(Cl)c5Cl)oc4c3C2)CC1
IC50 [1]: 4.29 µM

COc1ccc(-c2oc3c(CC=C(C)C)c(O)cc(O)c3c(=O)c2O)cc1 [ICARITIN]
IC50 [1]: 20.8 µM

CCN(CC)Cc1c(O)ccc2c(=O)c(O)c(-c3ccc(OC)cc3OC)oc12
inhibition at 125 µM [2]: 25%

COc1ccc(-c2oc3c(CNCc4cccc(F)c4)c(O)ccc3c(=O)c2O)c(OC)c1
inhibition at 125 µM [2]: 19%

COc1ccc(-c2oc3c(CNCc4ccncc4)c(O)ccc3c(=O)c2O)c(OC)c1
IC50 [1]: 56.6 µM

COc1ccc(-c2oc3c4c(ccc3c(=O)c2O)OCN(NCc2ccc(Cl)c(Cl)c2)C4)c(OC)c1
inhibition at 125 µM [2]: 36%

O=c1c(O)c(-c2ccc(Cl)c(Cl)c2)oc2c3c(ccc12)OCN(CC1CCOCC1)C3
IC50 [1]: 4.81 µM
